Among the data in patent publication US20250109132A1, “COMPOUNDS AND METHODS FOR TREATING FRIEDREICH'S ATAXIA” (Design Therapeutics, Inc., priority 2022, published 2025) are EC50 values, retold here.

For this test, the system named is human FXN. The experiment in a line: EC50 Assay: FXN mRNA expression by qRT-PCR in GM15850 cells. The settings on record: GM15850 cell suspension, 48 hrs incubation, hFXN expression normalized to hGAPDH, 5-point 3-fold dose response, read-out: EC50 WT (nM, 48 hr). The test is classed as cell-based. As to the method:
Cell culture: Cells were cultured in RPMI1640 medium+15% FBS. Cells were maintained at a density between […]. Cells were centrifuged, resuspended in fresh medium, counted and plated at 150,000 cells per well in 100 μL in a non-coated, flat bottom tissue culture plate.
Compound treatment: 10 mM stock solution of FA GeneTAC was diluted 1:10 in DMSO followed by a 1:100 dilution in growth medium. Working solution was then further diluted to 1OX desired final concentration of 150 nM. Compound was then diluted at a 1:3 ratio into growth medium containing 0.01% DMSO. 5-point, 3-fold dose response curve was generated. 11 μL of 10× compound was added to wells containing 100 μL cell suspension of GM15850. 11 μL growth medium containing 0.01% DMSO was added to all wells not treated with FA GeneTAC. Cells were allowed to incubate for 48 hrs prior to cell lysis using guanidine isothiocyanate solution.
RNA isolation: Total RNA was isolated and purified in 384-well column filter plates using chaotropic salt.
qRT-PCR: qRT-PCR reactions were assembled using AgPath-ID reagents (Thermo Fisher) using 6 μL mastermix and 4 μL RNA. qRT-PCR TaqMan primer probe sets against human FXN (Assay ID Hs01075496 ml) and human GAPDH (Assay ID Hs00266705_g1) were used to measure the intended targets. qRT-PCR was run on the ThermoFisher QuantStudio 6 PRO instrument using the manufacturer's recommended cycling conditions.
Data analysis: qPCR data was analyzed using Thermo Fisher Design and Analysis software. Data was exported to Excel and hFXN expression was normalized to hGAPDH expression
A<100 nM; B is 100 nM to 500 nM; C>500 nM.

The structures appear in SMILES notation.

As usually defined, the EC50 is the concentration that produces a half-maximal response. Take `COC(C)(C)c1ccc(Oc2c(C)cc(F)cc2C)c(-c2cn(C)c(=O)c3[nH]c(C(=O)Nc4ccc(OCCOCCOCCOCCOCCOCCOCCOCCOCCNC(=O)CCNC(=O)c5nc(NC(=O)CCNC(=O)c6cc(NC(=O)c7nc(NC(=O)CCNC(=O)c8cc(NC(=O)c9nccn9C)cn8C)cn7C)cn6C)cn5C)cc4)cc23)c1` [Compound 1]: the EC50 was less than 100 nM. The result for `Cc1cc(F)cc(C)c1Oc1ccc(S(C)(=O)=O)cc1-c1cn(C)c(=O)c2[nH]c(C(=O)Nc3ccc(OCCOCCOCCOCCOCCOCCOCCOCCOCCNC(=O)CCNC(=O)c4nc(NC(=O)CCNC(=O)c5cc(NC(=O)c6nc(NC(=O)CCNC(=O)c7cc(NC(=O)c8nccn8C)cn7C)cn6C)cn5C)cn4C)cc3)cc12` [Compound 2] reads less than 100 nM; that for `CCS(=O)(=O)c1ccc(Oc2c(C)cc(F)cc2C)c(-c2cn(C)c(=O)c3[nH]c(C(=O)Nc4ccc(OCCOCCOCCOCCOCCOCCOCCOCCOCCNC(=O)CCNC(=O)c5nc(NC(=O)CCNC(=O)c6cc(NC(=O)c7nc(NC(=O)CCNC(=O)c8cc(NC(=O)c9nccn9C)cn8C)cn7C)cn6C)cn5C)cc4)cc23)c1` [Compound 3], less than 100 nM; that for `COCCOCCOCCOCCOCCOCCOc1cc(NC(=O)c2cc3c(-c4cc(C(C)(C)O)ccc4Oc4c(C)cc(F)cc4C)cn(C)c(=O)c3[nH]2)ccc1OCCOCCOCCOCCOCCOCCOCCOCCOCCNC(=O)CCNC(=O)c1nc(NC(=O)CCNC(=O)c2cc(NC(=O)c3nc(NC(=O)CCNC(=O)c4cc(NC(=O)c5nccn5C)cn4C)cn3C)cn2C)cn1C` [Compound 4], less than 100 nM. Under `Cc1cc(F)cc(C)c1Oc1ccc(C(C)(C)O)cc1-c1cn(C)c(=O)c2[nH]c(C(=O)NCc3cn(CCOCCOCCOCCOCCOCCOCCOCCOCCNC(=O)CCNC(=O)c4nc(NC(=O)CCNC(=O)c5cc(NC(=O)c6nc(NC(=O)CCNC(=O)c7cc(NC(=O)c8nccn8C)cn7C)cn6C)cn5C)cn4C)nn3)cc12` [Compound 5] stands less than 100 nM; under `Cc1cc(F)cc(C)c1Oc1ccc(C(C)(C)O)cc1-c1cn(C)c(=O)c2[nH]c(C(=O)NCc3ccc(OCCOCCOCCOCCOCCOCCOCCOCCOCCNC(=O)CCNC(=O)c4nc(NC(=O)CCNC(=O)c5cc(NC(=O)c6nc(NC(=O)CCNC(=O)c7cc(NC(=O)c8nccn8C)cn7C)cn6C)cn5C)cn4C)cc3)cc12` [Compound 6], less than 100 nM.

On to `Cc1cc(F)cc(C)c1Oc1ccc(C(C)(C)O)cc1-c1cn(C)c(=O)c2[nH]c(C(=O)Nc3ccc(OCCOCCOCCOCCOCCOCCOCCOCCOCCNC(=O)c4nc(NC(=O)CCNC(=O)c5cc(NC(=O)c6nc(NC(=O)CCNC(=O)c7cc(NC(=O)c8nccn8C)cn7C)cn6C)cn5C)cn4C)cc3)cc12` [Compound 7], for which the EC50 was less than 100 nM. The result for `Cc1cc(F)cc(C)c1Oc1ccc(C(C)(C)O)cc1-c1cn(C)c(=O)c2[nH]c(C(=O)Nc3ccc(OCCOCCOCCOCCOCCOCCOCCOCCOCCNC(=O)c4nc(NC(=O)CCNC(=O)c5cc(NC(=O)c6nc(NC(=O)CCNC(=O)c7cc(NC(=O)c8nccn8C)c[nH]7)cn6C)c[nH]5)cn4C)cc3)cc12` [Compound 9] reads less than 100 nM. Turning to `Cc1cc(F)cc(C)c1Oc1ccc(C(C)(C)O)cc1-c1cn(C)c(=O)c2[nH]c(C(=O)Nc3ccc(OCCOCCOCCOCCOCCOCCOCCOCCOCCNC(=O)CCNC(=O)CCNC(=O)c4nc(NC(=O)CCNC(=O)c5cc(NC(=O)c6nc(NC(=O)CCNC(=O)c7cc(NC(=O)c8nccn8C)cn7C)cn6C)cn5C)cn4C)cc3)cc12` [Compound 10], the half-maximal effective concentration (EC50) is less than 100 nM.

For the compound `Cc1cc(F)cc(C)c1Oc1ccc(C(C)(C)O)cc1-c1cn(C)c(=O)c2[nH]c(C(=O)Nc3ccc(OCCOCCOCCOCCOCCOCCNC(=O)CCNC(=O)c4nc(NC(=O)CCNC(=O)c5cc(NC(=O)c6nc(NC(=O)CCNC(=O)c7cc(NC(=O)c8nccn8C)cn7C)cn6C)cn5C)cn4C)cc3)cc12` [Compound 11], the EC50 is less than 100 nM. As to `Cc1cc(F)cc(C)c1Oc1ccc(C(C)(C)O)cc1-c1cn(C)c(=O)c2[nH]c(C(=O)Nc3ccc(OCCOCCOCCOCCOCCOCCOCCOCCOCCNC(=O)CCNC(=O)c4nc(NC(=O)CCNC(=O)c5cc(NC(=O)c6nc(NC(=O)CCNC(=O)c7cc(NC(=O)c8nccn8C)cn7C)cn6C)cn5C)cn4C)c(O)c3)cc12` [Compound 12], the EC50 is less than 100 nM. Under `Cc1cc(F)cc(C)c1Oc1ccc(C(C)(C)O)cc1-c1cn(C)c(=O)c2[nH]c(C(=O)Nc3ccc(OCCOCCOCCOCCOCCOCCOCCOCCOCCNC(=O)CCNC(=O)c4nc(NC(=O)CCNC(=O)c5cc(NC(=O)c6nc(NC(=O)CCNC(=O)c7cc(NC(=O)c8nccn8C)cn7C)cn6C)cn5C)cn4C)cc3)cc12` [Compound 15] stands less than 100 nM; under `CCNC(=O)c1cc2c(-c3cc(C(C)(C)O)ccc3Oc3c(C)cc(OCCOCCOCCOCCOCCOCCOCCOCCOCCNC(=O)CCNC(=O)c4nc(NC(=O)CCNC(=O)c5cc(NC(=O)c6nc(NC(=O)CCNC(=O)c7cc(NC(=O)c8nccn8C)cn7C)cn6C)cn5C)cn4C)cc3C)cn(C)c(=O)c2[nH]1` [Compound 17], less than 100 nM.
